Test results taken from patent US12018011B2, “Macrocyclic compounds and compositions, and methods of preparing and using the same” (Kura Oncology, Inc., priority 2021, dated 2024).

Columns and labels:
[1] = target: T1, Recombinant human farnesyl transferase (FTase) (Homo sapiens, UniProt P49356); experiment: FTase fluorescence assay (farnesylation of dansyl-GCVLS peptide); type: biochemical; details: recombinant human FTase 2.5 nM, Dansyl-GCVLS 85 nM, FPP 30 nM, 30° C., 50 minutes
T1 construct: purchased Crelux (Martinsried, Germany)

T24/83 cells = experiment: T24/83 cell proliferation assay (CellTiter-Glo); type: cell-based; details: Homo sapiens, 96 h, 4 days
From the text: T24/83 cell line was purchased from the European Collection of Authenticated Cell Cultures (Salisbury, UK). Recombinant human farnesyl transferase (FTase) and geranylgeranyl transferase type-1 (GGTase) were obtained from Crelux (Martinsried, Germany). Dansyl labelled GCVLS peptide was purchased from Bachem (Torrance, CA), and Dansyl labelled GCVLL peptide was purchased from Bio Synthesis (Lewisville, TX). Farnesyl Pyrophosphate (FPP) and Geranylgeranyl pyrophosphate (GGPP) were purchased from Cayman (Ann Arbor, MI).
Mutant oncogenic HRAS was originally identified in a human bladder carcinoma cell line called T24. T24/83 is a subline of T24 established more recently that has more favorable growth characteristics for in vitro assays. Thus, T24/83 is a well-characterized mutant HRAS-dependent cell line that is an ideal model for quantifying the HRAS-dependent antitumor activity of farnesyltransferase inhibitors.
T24/83 cells were inoculated into 384 well plates at 100 cells/well, and grown in the presence of inhibitor, 0.7% DMSO as a negative control, or 100 μM tipifarnib as a positive control, at 37° C. for 4 days. Cell viability was assessed using the CellTiter-Glo Kit (CTG) (Promega; Madison, WI). Luminescence was recorded using EnVision microplate reader (PerkinElmer; Waltham, MA). In this assay, tipifarmib was used as a positive control. All the assay plates passed the QC criteria (S/B, Z-factor).

[2] = Metabolic stability in human liver microsomes; type: in vitro ADME; details: human liver microsomes 0.5 mg protein/mL, test compound 1 μM, 37° C.; read-out: T1/2 in HLM
Description: (§1) The metabolic stability of the compounds disclosed herein was determined by measuring half-life (T1/2) of the compounds in the presence of mouse liver microsomes (MLM) or human liver microsomes (BILM).
(§2) Intermediate solution: 5 μL of compound and control stock solution (10 mM in dimethyl sulfoxide (DMSO)) were diluted with 495 μL of acetonitrile (ACN) (intermediate solution concentration: 100 μM, 99% ACN).
(§3) Working solution: 50 μL of compound and control intermediate solution (100 μM) were diluted with 450 μL of 100 mM potassium phosphate buffer (working solution concentration: 10 μM, 9.9% ACN).
(§4) Controls used in this assay: Testosterone, Diclofenac, and Propafenone.
(§5) Preparation Procedure: The appropriate amount of NADPH powder was weighed and diluted into a 10 mM MgCl2 solution (working solution concentration: 10 unit/mL; final concentration in reaction system: 1 unit/mL).
(§6) The appropriate concentrations of microsome working solutions were prepared in 100 mM potassium phosphate buffer.
(§7) Cold (4° C.) acetonitrile (CAN) containing 200 ng/mL tolbutamide and 200 ng/mL labetalol as internal standards (IS) was used as the stop solution.
(§8) Using an Apricot automation workstation, 10 μL/well of compound working solution were added to all 96-well reaction plates except the blank (T0, T5, T10, T20, T30, T60, and NCF60).
(§9) An Apricot automation workstation was used to add 80 μL/well of microsome solution to all reaction plates (Blank, T0, T5, T10, T20, T30, T60, and NCF60).
(§10) All reaction plates containing mixtures of compound and microsomes were pre-incubated at 37° C. for 10 minutes.
(§11) An Apricot automation workstation was used to add 10 μL/well of 100 mM potassium phosphate buffer to reaction plate NCF60.
(§12) Reaction plate NCF60 was incubated at 37° C. for 60 minutes.
(§13) After pre-incubation, an Apricot automation workstation was used to add 10 μL/well of NADPH regenerating system to every reaction plate except NCF60 (Blank, T0, T5, T10, T20, T30, and T60) to start the reaction. Final concentration of each component in incubation medium: Microsome (0.5 mg protein/mL); Test Compound (1 μM); Control Compound (1 μM); Acetonitrile (0.99%); DMSO (0.01%).
(§14) The reaction plates were incubated at 37° C. for 0 minute (T0, stop solution was added prior to microsome and NADPH solutions), 5 minutes (T5), 10 minutes (T10), 20 minutes (T20), 30 minutes (T30), 60 minutes (T60).
(§15) An Apricot automation workstation was used to add 300 μL/well of stop solution to each reaction plate at its appropriate end time point to terminate the reaction.
(§16) Each plate was sealed and shaken for 10 minutes.
(§17) After shaking, each plate was centrifuged at 4000 rpm and 4° C. for 20 minutes.
(§18) During centrifugation, an Apricot automation workstation was used to add 300 µL/well of HPLC grade water to eight new 96-well plates.
(§19) After centrifugation, an Apricot automation workstation was used to transfer 100 μL of supernatant from each reaction plate to its corresponding bioanaylsis plate.
(§20) Each bioanalysis plate was sealed and shaken for 10 minutes prior to LC-MS/MS analysis.
(§21) The equation of first order kinetics was used to calculate T1/2 and CLint(mic) (μL/min/mg).

[3] = Metabolic stability in mouse liver microsomes; type: in vitro ADME; details: CD-1 mouse liver microsomes 0.5 mg protein/mL, test compound 1 μM, 37° C.; read-out: T1/2 in MLM
Description: as §1, §2, §3, §4, §5, §6, §7, §8, §9, §10, §11, §12, §13, §14, §15, §16, §17, §18, §19, §20, §21

Row | IC50 [1] | IC50 (T24/83 cells) | half-life at 1 μM [2] | half-life at 1 μM [3] | Compound
1 | ≤ 10 nM | 50 to 500 nM | < 30 min | < 5 min | Cn1cncc1[C@@]1(O)c2ccc(Cl)c(c2)OCCc2cccc(c2)-c2cc(=O)[nH]c3ccc1cc23 [(S)-25, (S)-4^4-chloro-3-hydroxy-3-(1-methyl-1H-imidazol-5-yl)-2^1,2^2-dihydro-5-oxa-2(4,6)-quinolina-1,4(1,3)-dibenzenacycloheptaphan-2^2-one]
2 | ≤ 10 nM | 50 to 500 nM | < 30 min | < 5 min | Cn1cncc1[C@@]1(O)c2ccc(Cl)c(c2)OCCc2cccc(c2)-c2cc(=O)n(C3CC3)c3ccc1cc23 [(S)-29, (S)-4^4-chloro-2^1-cyclopropyl-3-hydroxy-3-(1-methyl-1H-imidazol-5-yl)-2^1,2^2-dihydro-5-oxa-2(4,6)-quinolina-1,4(1,3)-dibenzenacycloheptaphan-2^2-one]
3 | ≤ 10 nM | 50 to 500 nM | < 30 min | < 5 min | Cn1cnnc1[C@@]1(N)c2ccc(Cl)c(c2)OCCc2cccc(c2)-c2cc(=O)n(C3CC3)c3ccc1cc23 [(S)-35, (S)-3-amino-4^4-chloro-2^1-cyclopropyl-3-(4-methyl-4H-1,2,4-triazol-3-yl)-2^1,2^2-dihydro-5-oxa-2(4,6)-quinolina-1,4(1,3)-dibenzenacycloheptaphan-2^2-one]
4 | ≤ 10 nM | 50 to 500 nM | < 30 min | < 5 min | Cn1cncc1[C@@]1(N)c2ccc(Cl)c(c2)OCCc2cccc(c2)-c2cc(=O)n(C3CC3)c3ccc1cc23 [(S)-30, (S)-3-amino-4^4-chloro-2^1-cyclopropyl-3-(1-methyl-1H-imidazol-5-yl)-2^1,2^2-dihydro-5-oxa-2(4,6)-quinolina-1,4(1,3)-dibenzenacycloheptaphan-2^2-one]
5 | ≤ 10 nM | ≤ 50 nM | < 30 min | 5 to 15 min | Cn1cncc1[C@@]1(O)c2ccc(C#N)c(c2)OCCc2cccc(c2)-c2cc(=O)n(C)c3ccc1cc23 [(S)-36, (S)-3-hydroxy-2^1-methyl-3-(1-methyl-1H-imidazol-5-yl)-2^2-oxo-2^1,2^2-dihydro-5-oxa-2(4,6)-quinolina-1,4(1,3)-dibenzenacycloheptaphane-4^4-carbonitrile]
6 | ≤ 10 nM | ≤ 50 nM | < 30 min | < 5 min | [2H]C([2H])([2H])n1c(=O)cc2c3cc(ccc31)[C@@](O)(c1cncn1C)c1ccc(Cl)c(c1)OCCc1cccc-2c1 [(S)-28, (S)-4^4-chloro-3-hydroxy-2^1-(methyl-d3)-3-(1-methyl-1H-imidazol-5-yl)-2^1,2^2-dihydro-5-oxa-2(4,6)-quinolina-1,4(1,3)-dibenzenacycloheptaphan-2^2-one]
7 | ≤ 10 nM | ≤ 50 nM | > 100 min | > 15 min | Cn1cncc1C1(O)c2ccc(Cl)c(c2)COc2cccc(c2)-c2cc(=O)n(C)c3ccc1cc23 (centres unmarked) [Compound 45, 4^4-chloro-3-hydroxy-2^1-methyl-3-(1-methyl-1H-imidazol-5-yl)-2^1,2^2-dihydro-6-oxa-2(4,6)-quinolina-1,4(1,3)-dibenzenacyclohexaphan-2^2-one]
8 | ≤ 10 nM | ≤ 50 nM | > 100 min | > 15 min | Cn1cnnc1[C@@]1(N)c2ccc(C#N)c(c2)OCCc2cccc(c2)-c2cc(=O)n(C)c3ccc1cc23 [(S)-39, (S)-3-amino-2^1-methyl-3-(4-methyl-4H-1,2,4-triazol-3-yl)-2^2-oxo-2^1,2^2-dihydro-5-oxa-2(4,6)-quinolina-1,4(1,3)-dibenzenacycloheptaphane-4^4-carbonitrile]
9 | ≤ 10 nM | ≤ 50 nM |  |  | Cn1cncc1C1(O)c2cccc(c2)COc2cccc(c2)-c2cc(=O)n(C)c3ccc1cc23 (centres unmarked) [Compound 42, 3-hydroxy-2^1-methyl-3-(1-methyl-1H-imidazol-5-yl)-2^1,2^2-dihydro-6-oxa-2(4,6)-quinolina-1,4(1,3)-dibenzenacyclohexaphan-2^2-one]
10 | ≤ 10 nM | ≤ 50 nM |  |  | Cn1cncc1[C@@]1(N)c2ccc(C#N)c(c2)OCc2cccc(c2)-c2cc(=O)n(C)c3ccc1cc23 [(S)-19, (S)-3-amino-2^1-methyl-3-(1-methyl-1H-imidazol-5-yl)-2^2-oxo-2^1,2^2-dihydro-5-oxa-2(4,6)-quinolina-1,4(1,3)-dibenzenacyclohexaphane-4^4-carbonitrile]
11 | ≤ 10 nM | 50 to 500 nM | < 30 min | 5 to 15 min | Cn1cncc1C1(O)c2ccc(Cl)c(c2)CCOc2cccc(c2)-c2cc(=O)n(C)c3ccc1cc23 (centres unmarked) [Compound 65, 4^4-chloro-3-hydroxy-2^1-methyl-3-(1-methyl-1H-imidazol-5-yl)-2^1,2^2-dihydro-7-oxa-2(4,6)-quinolina-1,4(1,3)-dibenzenacycloheptaphan-2^2-one]
12 | > 100 nM | > 500 nM |  |  | COc1cc2c3cc(ccc3n1)C(O)(c1cncn1C)c1ccc(Cl)c(c1)OCCc1cccc-2c1 (centres unmarked) [Compound 24, 4^4-chloro-2^2-methoxy-3-(1-methyl-1H-imidazol-5-yl)-5-oxa-2(4,6)-quinolina-1,4(1,3)-dibenzenacycloheptaphan-3-ol]
13 | 10 to 100 nM | 50 to 500 nM |  |  | Cn1cncc1C1(O)c2cccc(c2)COc2cccc(c2)-c2cc(=O)[nH]c3ccc1cc23 (centres unmarked) [Compound 41, 3-hydroxy-3-(1-methyl-1H-imidazol-5-yl)-2^1,2^2-dihydro-6-oxa-2(4,6)-quinolina-1,4(1,3)-dibenzenacyclohexaphan-2^2-one]
